Legend:
Test in all cases: relative viability (nuclei count vs DMSO), 5 days (fraction); higher = more cells survive
[1] = tested on: NCI-H520
In short: (§1)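 After 5 days of treatment, lung cancer cells in 1536-well plates were fixed and stained in a single step (final 0.05% Triton X-100, 1% formaldehyde, 1 ug/ml Hoechst) and their nuclei counted on 4× images. Treatment had been applied by pin tool the day after seeding as one drug alone or as a fixed anchor-drug dose with five library-drug doses (not always all listed) in √10 steps. Relative viability is the nuclei count of treated wells divided by that of vehicle wells, and values are medians of duplicate plates.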

[2] = tested on: NCI-H1651
In short: as §1

[3] = tested on: NCI-H647
In short: as §1

[4] = tested on: H3255
In short: as §1

[5] = tested on: HCC-15
In short: as §1

[6] = tested on: NCI-H358
In short: as §1

[7] = tested on: NCI-H1755
In short: as §1

[8] = tested on: NCI-H727
In short: as §1

[9] = tested on: NCI-H650
In short: as §1

[10] = tested on: LCLC-103H
In short: as §1

[11] = tested on: NCI-H1437
In short: as §1

[12] = tested on: HCC-827
In short: as §1

[13] = tested on: NCI-H661
In short: as §1

[14] = tested on: NCI-H2087
In short: as §1

[15] = tested on: COR-L23
In short: as §1

[16] = tested on: EPLC-272H
In short: as §1

[17] = tested on: NCI-H1975
In short: as §1

[18] = tested on: NCI-H1792
In short: as §1

[19] = tested on: NCI-H1944
In short: as §1

[20] = tested on: COR-L 105
In short: as §1

COCC1(CO)C(=O)C2CCN1CC2 (stereo not given) [PRIMA-1MET] + Cc1nc(NC(=O)N2CCC[C@H]2C(N)=O)sc1-c1ccnc(C(C)(C)C(F)(F)F)c1 [Alpelisib] (partner 2 µM)
relative viability ([1]; first compound 0.2 µM): 1.21
relative viability ([1]; first compound 0.6325 µM): 0.84
relative viability ([1]; first compound 6.325 µM): 0.831
relative viability ([1]; first compound 20 µM): 0.0746
relative viability ([2]; first compound 0.2 µM): 0.904
relative viability ([2]; first compound 0.6325 µM): 0.981
relative viability ([2]; first compound 2 µM): 1.17
relative viability ([2]; first compound 6.325 µM): 0.962
relative viability ([2]; first compound 20 µM): 0.837
relative viability ([3]; first compound 0.2 µM): 1.33
relative viability ([3]; first compound 0.6325 µM): 1.04
relative viability ([3]; first compound 2 µM): 1.13
relative viability ([3]; first compound 6.325 µM): 1.09
relative viability ([3]; first compound 20 µM): 0.892
relative viability ([4]; first compound 0.2 µM): 0.845
relative viability ([4]; first compound 0.6325 µM): 0.547
relative viability ([4]; first compound 2 µM): 0.574
relative viability ([4]; first compound 6.325 µM): 0.793
relative viability ([4]; first compound 20 µM): 0.666
relative viability ([5]; first compound 0.2 µM): 1.01
relative viability ([5]; first compound 0.6325 µM): 0.708
relative viability ([5]; first compound 2 µM): 0.81
relative viability ([5]; first compound 6.325 µM): 0.999
relative viability ([5]; first compound 20 µM): 0.643
relative viability ([6]; first compound 0.2 µM): 1.17
relative viability ([6]; first compound 0.6325 µM): 0.781
relative viability ([6]; first compound 6.325 µM): 0.908
relative viability ([6]; first compound 20 µM): 0.0962
relative viability ([7]; first compound 0.2 µM): 0.974
relative viability ([7]; first compound 0.6325 µM): 0.891
relative viability ([7]; first compound 2 µM): 0.864
relative viability ([7]; first compound 6.325 µM): 0.952
relative viability ([7]; first compound 20 µM): 0.892
relative viability ([8]; first compound 0.2 µM): 0.592
relative viability ([8]; first compound 0.6325 µM): 0.612
relative viability ([8]; first compound 2 µM): 0.568
relative viability ([8]; first compound 6.325 µM): 0.402
relative viability ([8]; first compound 20 µM): 0.0858
relative viability ([9]; first compound 0.2 µM): 1.38
relative viability ([9]; first compound 2 µM): 1.08
relative viability ([9]; first compound 6.325 µM): 1.02
relative viability ([9]; first compound 20 µM): 0.099
relative viability ([10]; first compound 0.2 µM): 1.1
relative viability ([10]; first compound 0.6325 µM): 0.966
relative viability ([10]; first compound 2 µM): 0.793
relative viability ([10]; first compound 6.325 µM): 1.09
relative viability ([10]; first compound 20 µM): 0.935
relative viability ([11]; first compound 0.2 µM): 1
relative viability ([11]; first compound 0.6325 µM): 0.972
relative viability ([11]; first compound 2 µM): 1.01
relative viability ([11]; first compound 6.325 µM): 1.12
relative viability ([11]; first compound 20 µM): 0.926
relative viability ([12]; first compound 0.2 µM): 1.01
relative viability ([12]; first compound 0.6325 µM): 0.896
relative viability ([12]; first compound 2 µM): 0.877
relative viability ([12]; first compound 6.325 µM): 0.974
relative viability ([12]; first compound 20 µM): 0.948
relative viability ([13]; first compound 0.2 µM): 0.617
relative viability ([13]; first compound 0.6325 µM): 0.581
relative viability ([13]; first compound 6.325 µM): 0.602
relative viability ([13]; first compound 20 µM): 0.297
relative viability ([14]; first compound 0.2 µM): 1.23
relative viability ([14]; first compound 0.6325 µM): 0.775
relative viability ([14]; first compound 2 µM): 1.18
relative viability ([14]; first compound 6.325 µM): 1.28
relative viability ([14]; first compound 20 µM): 0.901
relative viability ([15]; first compound 0.2 µM): 0.783
relative viability ([15]; first compound 0.6325 µM): 0.699
relative viability ([15]; first compound 2 µM): 0.869
relative viability ([15]; first compound 6.325 µM): 0.726
relative viability ([15]; first compound 20 µM): 0.0226
relative viability ([16]; first compound 0.2 µM): 1.06
relative viability ([16]; first compound 0.6325 µM): 0.784
relative viability ([16]; first compound 2 µM): 0.869
relative viability ([16]; first compound 6.325 µM): 0.869
relative viability ([16]; first compound 20 µM): 0.667
relative viability ([17]; first compound 0.2 µM): 0.822
relative viability ([17]; first compound 0.6325 µM): 0.603
relative viability ([17]; first compound 2 µM): 0.694
relative viability ([17]; first compound 6.325 µM): 0.68
relative viability ([17]; first compound 20 µM): 0.574
relative viability ([18]; first compound 0.2 µM): 0.708
relative viability ([18]; first compound 0.6325 µM): 0.557
relative viability ([18]; first compound 2 µM): 0.456
relative viability ([18]; first compound 6.325 µM): 0.754
relative viability ([18]; first compound 20 µM): 0.687
relative viability ([19]; first compound 0.2 µM): 1.01
relative viability ([19]; first compound 0.6325 µM): 0.719
relative viability ([19]; first compound 6.325 µM): 0.849
relative viability ([19]; first compound 20 µM): 0.823
relative viability ([20]; first compound 0.2 µM): 1.11
relative viability ([20]; first compound 0.6325 µM): 0.997
relative viability ([20]; first compound 2 µM): 1.14
relative viability ([20]; first compound 6.325 µM): 0.852
relative viability ([20]; first compound 20 µM): 0.176

From the supplement of paper PMC10307832
